Measurements published in patent US4593017A, “Methods of treating patients using a pharmaceutical preparation containing an α-endorfine fragment” (Akzo N.V., priority 1982, dated 1986).
Where a SMILES comes first, the peptide text is derived from it.

Assays:
[1] = test system: AVP (arg-vasopressin) levels of eye plexus plasma; test: Vasopressin release: AVP levels of eye plexus plasma (RIA); type: in vivo, Female Wistar rats; conditions: 10 μg per rat subcutaneously
Method: The effect of (2-9)-α-endorfine on AVP (arg-vasopressin) levels of eye plexus plasma was tested.
Female Wistar rats (140-160 g) were anaesthetized with ether for a strictly controlled period of 45 seconds. Samples of eye plexus blood were taken and stored in cooled plastic tubes to which heparin was added. The tubes were centrifuged at 4° C. in order to obtain the plasma. The immunoreactive AVP was directly measured in 20 μl of eye plexus plasma with the aid of RIA (radio-immuno-assay) methods.
The rats were treated with placebo or with 10 μg of (2-9)-α-endorfine per rat, injected subcutaneously.

rats = test: Apomorphine induced stereotyped sniffing; type: in vivo; conditions: for (Stereotyped) sniffing: after 1 h apomorphine 250 μg/kg s.c., tested 20 min later, measured for 4 min
Method: Subcutaneous treatment of rats with apomorphine (250 μg/kg) elicits hyperlocomotion and especially stereotyped sniffing behavoir. Increase of this stereotyped sniffing by pretreatment with the drug to be tested in considered to be an indication for dopaminergic activity.
Groups of rats were subcutaneously injected with placebo (0.5 ml saline), (2-9)-α-endorfine (50 μg) or (3-9)-α-endorfine (50 μg) and after 1 h. with apomorphine (250 μg/kg). An additional group of rats received two placebo (0.5 ml saline) injections. Twenty minutes after the last injection the rats were tested in a small open field and the duration of stereotyped sniffing was measured for 4 min.

[2] = pole-jumping test; delaying extinction of conditioned avoidance behavior; Pharmac. Ther. 16, 67, 1982; cited from earlier work

Structure (SMILES) | AVP levels ([1]; 2 minutes after injection) | AVP levels ([1]; 5 minutes after injection) | AVP levels ([1]; 10 minutes after injection) | (Stereotyped) sniffing (rats; pretreatment 50 μg s.c.) | potentiation of apomorphine-induced stereotyped sniffing (rats; pretreatment 50 μg, apomorphine 250 μg/kg s.c.) | times less active than α-endorfine [2] | (Stereotyped) sniffing (rats; placebo (0.5 ml saline) pretreatment)
CSCC[C@H](NC(=O)[C@H](Cc1ccccc1)NC(=O)CNC(=O)CN)C(=O)N[C@H](C(=O)N[C@@H](CO)C(=O)N[C@@H](CCC(=O)O)C(=O)N[C@@H](CCCCN)C(=O)O)[C@@H](C)O [(2-9)-α-endorfine, H-Gly-Gly-L-Phe-L-Met-L-Thr-L-Ser-L-Glu-L-Lys-OH] (H-GGFMTSEK-OH) | 667 pg/mL | 92 pg/mL | 78 pg/mL | 158.0 s | potentiated | 10 times | 
CN1CCc2cccc3c2[C@H]1Cc1ccc(O)c(O)c1-3 [apomorphine, reference compound] |  |  |  |  |  |  | 121.4 s
